Measurements as given in patent US20230286968A1, “ARYLOXAZOLO SPIRAL RING DERIVATIVES FOR THE TREATMENT AND PROPHYLAXIS OF HEPATITIS B VIRUS INFECTION” (Hoffmann-La Roche Inc., priority 2020, published 2023).
Read-outs that look alike come from different tables or passages of the source.

Tests used:
HBsAg = experiment: PHH natural infection assay, HBsAg (alphalisa); format: cell-based, HBV
How it was run: (§1)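 Cryopreserved PHH plated 24 h, infected with HBV at 200 GE/cell plus 4% PEG8000 for 24 h, then sandwich-cultured 72 h with 0.25 mg/mL matrix gel. Compounds at varied concentrations applied twice at 72-h intervals. Supernatant HBsAg and HBeAg measured by AlphaLISA with specific antibodies.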

HBeAg = experiment: PHH natural infection assay, HBeAg (alphalisa); format: cell-based, HBV
How it was run: as §1

[1] = Cytotoxicity in PHH natural infection assay (Cell Counting Kit-8); format: cell-based; details: HBV-infected primary human hepatocytes, CCK8
How it was run: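 HBV-infected primary human hepatocytes (200 GE/cell, 4% PEG8000, 24 h), sandwich-cultured 72 h, then given compound-containing medium twice at 72 h intervals. Cytotoxicity read by CCK-8 at end of treatment.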

[2] = Hepatitis B virus, Hepatocyte, read-out: HBsAg IC50, HBV-infected primary human hepatocytes, supernatant, alphalisa
[3] = Hepatitis B virus, Hepatocyte, read-out: HBeAg IC50, HBV-infected primary human hepatocytes, supernatant, alphalisa
[4] = read-out: HBsAg IC50, HBV-infected primary human hepatocytes, supernatant, alphalisa
[5] = read-out: HBeAg IC50, HBV-infected primary human hepatocytes, supernatant, alphalisa

Row | Structure (SMILES) | IC50 (HBsAg; [2]) | IC50 (HBeAg; [3]) | CC50 at 144 h [1] | IC50 (HBsAg; [4]) | IC50 (HBeAg; [5])
1 | O=C(NC1CC2(C1)CC(c1nc3cc(Cl)cnc3o1)C2)c1ccnc(S(=O)(=O)C2CC2)c1 (stereo not drawn) [Example 85, N-[6-(6-chlorooxazolo[5,4-b]pyridin-2-yl)spiro[3.3]heptan-2-yl]-2-cyclopropylsulfonyl-pyridine-4-carboxamide] | 0.81 µM | 0.73 µM | > 10 µM |  | 
2 | CC(=O)N1CCC(C(=O)NC2CC3(C2)CC(c2nc4cc(Cl)ccc4o2)C3)C1 (stereo not drawn) [Example 73, 1-acetyl-N-[6-(5-chloro-1,3-benzoxazol-2-yl)spiro[3.3]heptan-2-yl]pyrrolidine-3-carboxamide] | 9.05 µM | 6.39 µM | > 10 µM |  | 
3 | CN1CC(CC(=O)NC2CC3(C2)CC(c2nc4cc(Cl)ccc4o2)C3)CC1=O (stereo not drawn) [Example 35, N-[6-(5-chloro-1,3-benzoxazol-2-yl)spiro[3.3]heptan-2-yl]-2-(1-methyl-5-oxo-pyrrolidin-3-yl)acetamide] | 9.93 µM | 7.28 µM | > 10 µM |  | 
4 | CC(C)S(=O)(=O)NC1CC2(C1)CC(c1nc3cc(Cl)ccc3o1)C2 (stereo not drawn) [Example 58, N-[6-(5-chloro-1,3-benzoxazol-2-yl)spiro[3.3]heptan-2-yl]propane-2-sulfonamide] | 6.19 µM | 5.97 µM | > 100 µM |  | 
5 | CCN(CC)c1cc(C(=O)NC2CC3(C2)CC(c2nc4cc(Cl)ccc4o2)C3)ccn1 (stereo not drawn) [Example 6, N-[6-(5-chloro-1,3-benzoxazol-2-yl)spiro[3.3]heptan-2-yl]-2-(diethylamino)pyridine-4-carboxamide] | 6.56 µM | 4.87 µM | > 10 µM |  | 
6 | N=C(NO)c1cc(C(=O)NC2CC3(C2)CC(c2nc4cc(Cl)ccc4o2)C3)ccn1 (stereo not drawn) [Example 95, N-[6-(5-chloro-1,3-benzoxazol-2-yl)spiro[3.3]heptan-2-yl]-2-(N-hydroxycarbamimidoyl)pyridine-4-carboxamide] | 8.25 µM | 6.25 µM | > 10 µM |  | 
7 | O=C(NC1CC2(C1)CC(c1nc3cc(Cl)ccc3o1)C2)c1ccnc(NC2COC2)c1 (stereo not drawn) [Example 5, N-[6-(5-chloro-1,3-benzoxazol-2-yl)spiro[3.3]heptan-2-yl]-2-(oxetan-3-ylamino)pyridine-4-carboxamide] | 7.19 µM | 5.42 µM | > 10 µM |  | 
8 | O=C(NC1CC2(C1)CC(c1nc3cc(Cl)ccc3o1)C2)N1CCS(=O)(=O)CC1 (stereo not drawn) [Example 68, N-[6-(5-chloro-1,3-benzoxazol-2-yl)spiro[3.3]heptan-2-yl]-1,1-dioxo-1,4-thiazinane-4-carboxamide] | 6.65 µM | 4.12 µM | > 100 µM |  | 
9 | CCCNC(=O)NC1CC2(C1)CC(c1nc3cc(Cl)ccc3o1)C2 (stereo not drawn) [Example 60, 1-[6-(5-chloro-1,3-benzoxazol-2-yl)spiro[3.3]heptan-2-yl]-3-propyl-urea] | 7.19 µM | 5.1 µM | > 100 µM |  | 
10 | O=C(NC1CC2(C1)CC(c1nc3cc(Cl)ccc3o1)C2)N1CCCC1 (stereo not drawn) [Example 66, N-[6-(5-chloro-1,3-benzoxazol-2-yl)spiro[3.3]heptan-2-yl]pyrrolidine-1-carboxamide] | 2.5 µM | 1.97 µM | 92.1 µM |  | 
11 | CCS(=O)(=O)c1cc(C(=O)N(C)C2CC3(CC(c4nc5cc(Cl)ccc5o4)C3)C2)ccn1 (stereo not drawn) [Example 93, N-[6-(5-chloro-1,3-benzoxazol-2-yl)spiro[3.3]heptan-2-yl]-2-ethylsulfonyl-N-methyl-pyridine-4-carboxamide] | 3.08 µM | 2.21 µM | > 10 µM |  | 
12 | O=C(CCCS(=O)(=O)NC(=O)C1CCC1)NC1CC2(C1)CC(c1nc3cc(Cl)ccc3o1)C2 (stereo not drawn) [Example 81, N-[4-[[6-(5-chloro-1,3-benzoxazol-2-yl)spiro[3.3]heptan-2-yl]amino]-4-oxo-butyl]sulfonylcyclobutanecarboxamide] | 4.6 µM | 6.06 µM | > 10 µM |  | 
13 | CN1C(C(=O)NC2CC3(C2)CC(c2nc4cc(Cl)ccc4o2)C3)CCS1(=O)=O (stereo not drawn) [Example 46, N-[6-(5-chloro-1,3-benzoxazol-2-yl)spiro[3.3]heptan-2-yl]-2-methyl-1,1-dioxo-1,2-thiazolidine-3-carboxamide] | 3.9 µM | 3.41 µM | > 10 µM |  | 
14 | [H][C@]1(NC(=O)c2ccnc(S(C)(=O)=O)c2)C[C@@]2(C1)C[C@]([H])(c1nc3cc(Cl)ccc3o1)C2 (single isomer, unassigned) [Example 87-b, (Sa)—N-[6-(5-chloro-1,3-benzoxazol-2-yl)spiro[3.3]heptan-2-yl]-2-methylsulfonyl-pyridine-4-carboxamide] |  |  | > 10 µM | 3.68 µM | 3.29 µM
15 | NC(=O)c1cc(C(=O)NC2CC3(C2)CC(c2nc4cc(Cl)ccc4o2)C3)ccn1 (stereo not drawn) [Example 101, N4-[6-(5-chloro-1,3-benzoxazol-2-yl)spiro[3.3]heptan-2-yl]pyridine-2,4-dicarboxamide] | 0.32 µM | 0.22 µM | > 100 µM |  | 
16 | O=C(NC1CC2(C1)CC(c1nc3cc(Cl)ccc3o1)C2)c1ccnc(NC2CC2)c1 (stereo not drawn) [Example 10, N-[6-(5-chloro-1,3-benzoxazol-2-yl)spiro[3.3]heptan-2-yl]-2-(cyclopropylamino)pyridine-4-carboxamide] | 3.77 µM | 3.92 µM | > 10 µM |  | 
17 | CN1C(=O)CCC1CC(=O)NC1CC2(C1)CC(c1nc3cc(Cl)ccc3o1)C2 (stereo not drawn) [Example 36, N-[6-(5-chloro-1,3-benzoxazol-2-yl)spiro[3.3]heptan-2-yl]-2-(1-methyl-5-oxo-pyrrolidin-2-yl)acetamide] | 4.05 µM | 3.72 µM | > 10 µM |  | 
18 | [H][C@]1(NC(=O)C2CCS(=O)(=O)CC2)C[C@]2(C1)C[C@]([H])(c1nc3cc(Cl)ccc3o1)C2 (single isomer, unassigned) [Example 82a, (Ra)—N-[6-(5-chloro-1,3-benzoxazol-2-yl)spiro[3.3]heptan-2-yl]-1,1-dioxo-thiane-4-carboxamide] |  |  | > 100 µM | 6.57 µM | 5.13 µM
19 | CNc1cc(C(=O)NC2CC3(C2)CC(c2nc4cc(Cl)ccc4o2)C3)ccn1 (stereo not drawn) [Example 97, N-[6-(5-chloro-1,3-benzoxazol-2-yl)spiro[3.3]heptan-2-yl]-2-(methylamino)pyridine-4-carboxamide] | 7.05 µM | 5.97 µM | > 10 µM |  | 
20 | O=C(NC1CC2(C1)CC(c1nc3cc(Cl)ccc3o1)C2)c1ccnc(S(=O)(=O)C2COC2)c1 (stereo not drawn) [Example 25, N-[6-(5-chloro-1,3-benzoxazol-2-yl)spiro[3.3]heptan-2-yl]-2-(oxetan-3-ylsulfonyl)pyridine-4-carboxamide] | 4.18 µM | 2.53 µM | > 10 µM |  | 
21 | CN(C)c1cc(C(=O)NC2CC3(C2)CC(c2nc4cc(Cl)ccc4o2)C3)ccn1 (stereo not drawn) [Example 11, N-[6-(5-chloro-1,3-benzoxazol-2-yl)spiro[3.3]heptan-2-yl]-2-(dimethylamino)pyridine-4-carboxamide] | 2.85 µM | 2.67 µM | > 100 µM |  | 
22 | CS(=O)(=O)N1CCC(CC(=O)NC2CC3(C2)CC(c2nc4cc(Cl)ccc4o2)C3)CC1 (stereo not drawn) [Example 79, N-[6-(5-chloro-1,3-benzoxazol-2-yl)spiro[3.3]heptan-2-yl]-2-(1-methylsulfonyl-4-piperidyl)acetamide] | 6.72 µM | 3.6 µM | > 10 µM |  | 
23 | O=C(NC1CC2(C1)CC(c1nc3cc(Cl)ccc3o1)C2)C1CCCS1(=O)=O (stereo not drawn) [Example 42, N-[6-(5-chloro-1,3-benzoxazol-2-yl)spiro[3.3]heptan-2-yl]-1,1-dioxo-thiolane-2-carboxamide] | 9.7 µM | 5.67 µM | > 100 µM |  | 
24 | CC1(C(=O)NC2CC3(C2)CC(c2nc4cc(Cl)ccc4o2)C3)CCS(=O)(=O)CC1 (stereo not drawn) [Example 54, N-(6-(5-chlorobenzo[d]oxazol-2-yl)spiro[3.3]heptan-2-yl)-4-methyltetrahydro-2H-thiopyran-4-carboxamide 1,1-dioxide] | 1.94 µM | 1.86 µM | > 100 µM |  | 
25 | O=C(NC1CC2(C1)CC(c1nc3cc(Cl)ccc3o1)C2)C1CNS(=O)(=O)C1 (stereo not drawn) [Example 43, N-[6-(5-chloro-1,3-benzoxazol-2-yl)spiro[3.3]heptan-2-yl]-1,1-dioxo-1,2-thiazolidine-4-carboxamide] | 9.04 µM | 3.81 µM | > 10 µM |  | 
26 | CC(C)(C)N1CC(C(=O)NC2CC3(C2)CC(c2nc4cc(Cl)ccc4o2)C3)CC1=O (stereo not drawn) [Example 31, 1-tert-butyl-N-[6-(5-chloro-1,3-benzoxazol-2-yl)spiro[3.3]heptan-2-yl]-5-oxo-pyrrolidine-3-carboxamide] | 7.87 µM | 5.24 µM | > 100 µM |  | 
27 | CC(C)NC(=O)NC1CC2(C1)CC(c1nc3cc(Cl)ccc3o1)C2 (stereo not drawn) [Example 61, 1-[6-(5-chloro-1,3-benzoxazol-2-yl)spiro[3.3]heptan-2-yl]-3-isopropyl-urea] | 4.71 µM | 3.82 µM | > 100 µM |  | 
28 | O=C(NC1CCOC1)NC1CC2(C1)CC(c1nc3cc(Cl)ccc3o1)C2 (stereo not drawn) [Example 65, 1-[6-(5-chloro-1,3-benzoxazol-2-yl)spiro[3.3]heptan-2-yl]-3-tetrahydrofuran-3-yl-urea] | 3.94 µM | 3.4 µM | > 100 µM |  | 
